Test results from patent publication US8318781B2, “G-protein-conjugated receptor agonist” (Japan Science and Technology Agency, priority 2007, dated 2012).

What was measured:
Type in all cases: cell-based
human GPR120 (hGPR120) [1] = target: T1, human GPR120 (hGPR120) (Homo sapiens, UniProt Q5NUL3); assay: ERK assay, screening for GPR120 ligands in cell line TXGPR120; conditions: for ERK/GPR120 100 μM: ligand 100 μM; for ERK/GPR120 100 μM / ERK/GPR120 10 μM: class relative to LA; for ERK/GPR120 10 μM: ligand 10 μM;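 on ERK/GPR120 10 μM: signals normalized between DMSO and PMA controls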
T1 construct: expressed in transfected cells; doxycycline-inducible expression vector
T1 sequence (Q5NUL3 1-361): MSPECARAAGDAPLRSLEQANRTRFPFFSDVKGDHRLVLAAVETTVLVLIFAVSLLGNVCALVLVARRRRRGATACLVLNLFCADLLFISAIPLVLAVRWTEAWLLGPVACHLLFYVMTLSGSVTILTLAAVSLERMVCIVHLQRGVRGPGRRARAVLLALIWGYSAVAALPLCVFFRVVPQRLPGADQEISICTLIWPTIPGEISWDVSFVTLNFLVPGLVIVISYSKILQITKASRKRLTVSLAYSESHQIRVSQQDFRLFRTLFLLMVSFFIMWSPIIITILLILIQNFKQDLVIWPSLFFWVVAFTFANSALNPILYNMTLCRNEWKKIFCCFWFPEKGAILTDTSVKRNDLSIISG
Method: (§1) This Test 1 was carried out by using the following materials and methods.
(§2) (1) In this test, the cell lines TXGPR40 and TXGPR120 were plated in 35-mm dishes in 5×10^5 cells/per dish.
(§3) Each ligand was dissolved in DMSO, diluted tenfold with the medium to make the total amount of 100 μl. DMSO was used as the negative control, and PMA (phorbol-12-myristate-13-acetate) was used as the positive control.
(§4) (3) The medium was removed from the dish of the cell to reduce the total amount of liquid to 0.9 ml.
(§5) (4) The ligand solution was added dropwise to the cell solution, and dispersed by gently shaking the dish, and allowed to react at room temperature.
(§6) (5) After 5 minutes of reaction, the medium was discarded, and the remaining medium on the dish was removed on ice using an aspirator.
(§7) (6) 150 μl of Lysis buffer (50 mM HEPES (pH 7.0), 150 mM NaCl, 10% glycerol, 1% NonidetP-40, 2 mM MgCl2, 1 mM EDTA, 100 mM NaF, 10 mM sodium phosphate, 1 mM Na3VO4, 20 mM β-glycerophosphate, and Proteinase inhibitor) were added, then the cells were collected using a cell scraper.
(§8) (1) The crude enzyme solution mixed with SDS Sample Buffer was subjected to ultrasonication with a sonifier, then incubated at 90° C. for five minutes.
(§9) (2) The mixture was vortexed and centrifuged at 15,000 rpm for five minutes at 4° C.
(§10) (3) The supernatant of the centrifuged sample was applied to two 7.5% acrylamide gel slabs placed in an electrophoresis tank filled with 1×SDS-PAGE Running Buffer (25 mM Tris, 0.2 M Glycin, and 1% SDS). Electrophoresis was carried out under a constant current of 40 mA for about 80 to 90 minutes.
(§11) (1) A PVDF membrane cut in the same size as the gel slab was immersed in methanol for about 15 seconds and then shaken in Transfer Buffer C solution (25 mM Tris, 0.02% SDS, 2% methanol and 40 mM 6-aminohexanoic acid) at room temperature to swell for 15 minutes. Filter paper for blotting was cut into a 10-cm square.
(§12) (2) On the blotting apparatus were placed sequentially two pieces of filter paper immersed in A solution (0.3 M Tris, 0.02% SDS and 2% methanol), two pieces of filter paper immersed in B solution (25 mM Tris, 0.02% SDS and 2% methanol), and the membrane thereon. The gel slab after electrophoresis, and finally two pieces of filter paper immersed in C solution was placed thereon, and the apparatus was closed.
(§13) (3) The protein was transferred to the membrane at 15 V for 30 minutes.
(§14) (1) The following procedure was all carried out at room temperature. After the protein transfer, the membrane was placed into a vial containing 1×TTBS (0.2 M Tris, 1.5 M NaCl, 0.2% Tween 20) and washed for 15 minutes.
(§15) (2) TTBS was discarded, and about 10 ml of Block Ace was added and blocked on a shaker for one hour.
(§16) (1) The primary antibodies (p44/42 MAP Kinase Antibody and Phospho-p44/42 MAP Kinase Antibody) were each diluted 1000-fold with TTBS.
(§17) (2) After blocking, the Block Ace solution was removed, the solution of the primary antibody was added and allowed to react on the shaker for two hours.
(§18) (1) The secondary antibody (Anti-rabbit Ig, Horseradish Peroxidase linked F(ab′)2 fragments) was diluted 5000-fold with TTBS.
(§19) (2) The primary antibody solution was removed and the membrane was washed three times on the shaker in TTBS for five to ten minutes each.
(§20) (3) TTBS was removed and the solution of secondary antibody was added and left for 1 hour on the shaker.
(§21) (1) 2 ml each of Detection Reagent 1 and Detection Reagent 2 from ECL kit were mixed together on ice.
(§22) (2) The solution of secondary antibody was removed from the membrane reacted with the secondary antibody and then washed three times on the shaker in TTBS for five minutes each.
(§23) (3) The liquid was thoroughly removed from the membrane, which was then placed in a plastic bag, and 2 ml of the Detection Reagent mixture was added per each membrane.
(§24) (4) The membrane was kept in contact with a film in the cassette for one to five minutes, and the film was developed using an automatic developing machine.

human GPR120 (hGPR120) [2] = target: T1, human GPR120 (hGPR120); assay: Determination of intracellular Ca2+ concentration (FLIPR), cell line TXGPR120; conditions: for agonistic activity for hGPR120 (in words): cells in which GPR120 has been transgenically expressed; for [Ca^2+]/GPR120 10 μM (ratio vs. LA): relative fluorescence intensity vs LA at 10 μM
Method: (§25) (1) In this test, The cell lines TXGPR40, TXGPR120 and GPR120/Flp-in were plated onto a collagen-coated black 96-well plate in 2×10^5 cells/well. The 96-well plates containing the cells were centrifuged and treated with Doxycycline (final concentration 10 μg/mL), incubated in a CO2 incubator for 21 hours, then used for assay.
(§26) (2) The ligand used in this test includes NCP04, NCP14, NCG20, NCG21, NCG22, NCG23, NCP02, NCP03, NCP05, NCP06, NCG14, NCG17, NCG19, NCG28, NCG29, NCG30, NCG31, NCG34, NCG35, NCG37, NCG38, NCG44, NCG45, NCG46, and NCG54. Each ligand was dissolved in DMSO and adjusted to the concentration of 10 mM, then diluted with Hanks' Balanced Salt Solution (pH 7.4) containing 20 mM HEPES (referred to as FLIPR buffer hereinafter) to the final concentration of 1 to 100 μM. 1% DMSO was used as the negative control, and LA was used as the positive control.
(§27) The ligands and controls were placed in different 96-well plates from the plates for the cells.
(§28) (3) The 96-well plate containing the cells was removed from the CO2 incubator. A fluorescent dye prepared in a twofold higher concentration (Ca Assay Kit Component A diluted with FLIPR Buffer) was added in 50 μL/well, then allowed to stand in the dark at room temperature for one hour.
(§29) (4) After one hour, the 96-well plate containing the cells and the 96-well plate in which ligands and controls were prepared were set on FLIPR (Fluorometric Imaging Plate Reader) for determination.
(§30) (5) Fluorometry using FLIPR was carried out at a laser output of 1.0 W for five minutes. […] after the start of the determination, the ligand (25 μL) was added dropwise to the cell plate at a rate of 50 μL/sec. The intensity of fluorescence was automatically digitized by the application program installed in the FLIPR from the image taken by the CCD camera (with exposure time of 0.40 sec). The interval of data sampling was one second for the initial one minute after the start of operation, and six seconds for the subsequent four minutes.
(§31) (6) The maximum fluorescence intensity was obtained from the data showing the change in the fluorescence intensity over time observed in each well. The maximum fluorescence intensity was plotted against ligand concentration, and pEC50 was calculated. The ratio of the fluorescence intensity for each ligand to LA at 10 μM was calculated as the relative intensity of each ligand.

human GPR40 (hGPR40) [3] = target: T2, human GPR40 (hGPR40) (Homo sapiens, UniProt O14842); assay: Determination of intracellular Ca2+ concentration (FLIPR), cell line TXGPR40; conditions: for EC50 / [Ca^2+]/GPR40 10 μM (ratio vs. LA): TXGPR40 cells; for EC50: maximum fluorescence intensity vs ligand concentration, read-out: [Ca^2+]/GPR40 pEC50 (converted); for agonistic activity for GPR40 (in words): cells in which GPR40 has been transgenically expressed; for [Ca^2+]/GPR40 10 μM (ratio vs. LA): relative fluorescence intensity vs LA at 10 μM
T2 construct: expressed in transfected cells; doxycycline-inducible expression vector
Method: as §25, §26, §27, §28, §29, §30, §31

human GPR120 (hGPR120) [4] = target: T1, human GPR120 (hGPR120); assay: Determination of intracellular Ca2+ concentration (FLIPR), cell line GPR120/Flp-in; conditions: GPR120/Flp-in cells; for EC50: maximum fluorescence intensity vs ligand concentration, read-out: [Ca^2+]/GPR120/Flp-In pEC50 (converted); for [Ca^2+]/GPR120/Flp-In 10 μM (ratio vs. LA): relative fluorescence intensity vs LA at 10 μM
Method: as §25, §26, §27, §28, §29, §30, §31

human GPR40 (hGPR40) [5] = target: T2, human GPR40 (hGPR40); assay: ERK assay, screening for GPR40 ligands in cell line TXGPR40; conditions: TXGPR40 cells, class relative to LA; for ERK/GPR40 10 μM: ligand 10 μM; for ERK/GPR40 100 μM: ligand 100 μM
Method: as §1, §2, §3, §4, §5, §6, §7, §8, §9, §10, §11, §12, §13, §14, §15, §16, §17, §18, §19, §20, §21, §22, §23, §24

T2 sequence (O14842 whole entry): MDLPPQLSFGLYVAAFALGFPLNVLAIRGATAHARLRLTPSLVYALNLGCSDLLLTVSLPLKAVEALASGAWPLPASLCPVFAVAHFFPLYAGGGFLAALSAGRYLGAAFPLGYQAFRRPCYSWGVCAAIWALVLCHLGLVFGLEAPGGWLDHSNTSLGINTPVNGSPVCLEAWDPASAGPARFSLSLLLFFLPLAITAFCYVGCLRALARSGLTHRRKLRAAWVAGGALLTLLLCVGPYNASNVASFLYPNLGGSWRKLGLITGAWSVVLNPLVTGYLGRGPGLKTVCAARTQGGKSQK

SMILES | ERK/GPR120 100 μM (human GPR120 (hGPR120) [1]; TXGPR120 cells) | agonistic activity for hGPR120 (in words) (human GPR120 (hGPR120) [2]) | [Ca^2+]/GPR120 10 μM (ratio vs. LA) (human GPR120 (hGPR120) [2]; TXGPR120 cells) | EC50 (human GPR40 (hGPR40) [3]) [µM] | agonistic activity for GPR40 (in words) (human GPR40 (hGPR40) [3]) | [Ca^2+]/GPR40 10 μM (ratio vs. LA) (human GPR40 (hGPR40) [3]) | EC50 (human GPR120 (hGPR120) [4]) [µM] | [Ca^2+]/GPR120/Flp-In 10 μM (ratio vs. LA) (human GPR120 (hGPR120) [4]) | ERK/GPR40 10 μM (human GPR40 (hGPR40) [5]) | ERK/GPR40 100 μM (human GPR40 (hGPR40) [5]) | ERK/GPR120 10 μM (human GPR120 (hGPR120) [1]; TXGPR120 cells) | selectivity for GPR120 in ERK assay (in words) (human GPR120 (hGPR120) [1]; GPR120 versus GPR40) | ERK activation for GPR120 (in words) (human GPR120 (hGPR120) [1]; TXGPR120 cells, FIGS. 5-8) | selectivity between GPR40 and GPR120 (in words), from Tables 3 and 4 (human GPR120 (hGPR120) [2]; GPR40 versus GPR120, Ca2+ and ERK results) | EC50 (human GPR120 (hGPR120) [2]; TXGPR120 cells, maximum fluorescence intensity vs ligand concentration, read-out: [Ca^2+]/GPR120 pEC50 (converted)) [µM]
O=C(O)CCc1ccc(OCCN(c2ccccc2)c2ccccn2)cc1 [NCP14] | ++ (++ denotes 50 to 100% of LA) | exhibit a similar effect | 0.00 | 9.77 | showed a specific reactivity | 0.98 | 15.5 | 0.56 | ++ (++ denotes 50 to 100% of LA) | ++ (++ denotes 50 to 100% of LA) |  |  |  |  | 
CCCN(CCOc1ccc(CCC(=O)O)cc1)c1ccccn1 [NCP03] | ++ (++ denotes 50 to 100% of LA) | exhibit a similar effect | 0.00 | 5.25 | showed a specific reactivity | 1.25 | 17.8 | 0.57 | ++ (++ denotes 50 to 100% of LA) | +++ (+++ denotes a higher value than LA) | + (+ denotes 0 to 100% of LA) |  |  |  | 
COc1cccc(N(CCOc2ccc(CCCC(=O)O)cc2)c2ccccc2)n1 [NCG37] | +++ (+++ denotes a higher value than LA) | exhibit a similar effect | 0.56 | 16.2 |  | 0.28 | 3.47 | 0.91 |  | + (+ denotes 0 to 100% of LA) | +++ (+++ denotes a higher value than LA) | selective for GRP120 | strongly activate ERK | acting relatively mildly for GPR40 but acting strongly for GPR120 | 17.8
